Patent US10155985B2, “Evaluation of eosinophilic esophagitis” (CHILDREN'S HOSPITAL MEDICAL CENTER, priority 2004, dated 2018)

Assays:
[1] = test system: eosinophilic esophagitis; conditions: cited from earlier work
[2] = test system: EE transcriptome; assay: EE transcriptome of EE patients after fluticasone propionate treatment; assay type: in vivo, human; conditions: EE patients treated; FIG. 6
Procedure: The data were analyzed by cluster analysis and ordered (standard correlation (A) and distance (B)) using Genespring software. […] Each column represented a separate individual and each line a gene. RNA from each patient was subjected to chip analysis using Affymetrix Human Genome U133 GeneChip plus 2.
In one embodiment, the EE transcriptome was used to evaluate EE patients pre- and post-treatment regimens.
This group of 13 non-responsive genes is SEQ ID NOS. 6, 35, 43, 61, 129, 1358, 1441, 1515, 1538, 1584, 1615, 1618, and 1620. Evaluation of these genes provides a marker of past, present, and/or future active disease, especially in the absence of overt disease. […] Thus, these 13 genes can be used to evaluate a patients propensity to EE, particularly in the absence of clinical or physical symptoms of EE or microscopic findings typical of EE. […] These 13 genes can be used to evaluate EE in an asymptomatic population or when past EE is suspected in a non-active EE individual at the time of endoscopy.

[3] = test system: esophageal epithelial cells; assay: Transcriptome of esophageal epithelial cells stimulated with IL-13, compared to the EE transcriptome; assay type: cell-based
From the text: In one embodiment, the EE transcriptome was compared to transcriptomes in cell/tissues that had been treated with one or more compounds potentially involved with and/or efficacious against EE. By comparing the EE transcriptome to the transcriptome of, e.g., a simple in vitro or ex vivo model of a particular compound, one can assess the percentage of genes that are dysregulated in EE due to that particular compound.
For example, in ex vivo or in vitro models, a compound was used to stimulate an esophageal cell type.

| Compound | effect on EE disease ([1]; Gastroenterology 131 (2006) 1381) | effect on EE gene dysregulation ([1]; J. Allergy Clin. Immunol. 120 (2007) 1292, U.S. Ser. No. 61/118,981) | number of EE transcriptome genes normalized by treatment [2] | number of EE transcriptome genes resistant to treatment [2] | share of the EE transcriptome resistant to treatment [2] | share of the genes of the EE transcriptome potentially due to stimulation of esophageal epithelial cells [3] |
| --- | --- | --- | --- | --- | --- | --- |
| CCC(=O)O[C@]1(C(=O)SCF)[C@H](C)C[C@H]2[C@@H]3C[C@H](F)C4=CC(=O)C=C[C@]4(C)[C@@]3(F)[C@@H](O)C[C@@]21C [fluticasone propionate] | induce EE disease remission | reverse EE gene dysregulation | 1605 genes/1620 genes | 13 genes/1620 genes | less than 1% |  |
| interleukin 13 [IL-13] |  |  |  |  |  | 20% |
